According to patent US20080269298A1, “Benzimidazol-1-YL-thiophene compounds for the treatment of cancer” (priority 2002, published 2008):

Key:
[1] = tested on: colon (HCT116) tumor cell line; experiment: Methylene Blue Growth Inhibition Assay, HCT116; assay type: cell-based; settings: Homo sapiens, HCT-116, 72 h; Cell Line HCT116, 3 days; read-out: MeB IC50
Protocol: (§1) Normal Human foreskin fibroblasts (HFF) and human colon (HCT116, RKO), lung (H460), prostate (PC3), and breast tumor (MCF7) cell lines were cultured in high glucose DMEM (Life Technologies) containing 10% fetal bovine serum (FBS) at 37° C. in a humidified 10% CO2, 90% air incubator. Cells were harvested using trypsin/EDTA, counted using a haemocytometer, and plated in 100 μl of the appropriate media, at the following densities, in a 96-well tissue culture plate (Falcon 3075): HFF 5,000 cells/well, HCT116 3,000 cells/well, RKO 2,500 cells/well, H460 2,000 cells/well, PC3 8,000 cells/well, MCF7 4,000 cells/well. The next day, compounds were diluted in DMEM containing 100 μg/ml gentamicin, at twice the final required concentration, from 10 mM stock solutions in DMSO. 100μ/well of these dilutions were added to the 100 μl of media currently on the cell plates. Medium containing 0.6% DMSO was added to control wells. Compounds diluted in DMEM were added to all cell lines. The final concentration of DMSO in all wells was 0.3%. Cells were incubated at 37° C., 10% CO2 for 3 days. Medium was removed by aspiration. Cell biomass was estimated by staining cells with […] per well methylene blue (Sigma M9140, 0.5% in 50:50 ethanol:water), and incubation at room temperature for at least 30 minutes. Stain was removed, and the plates rinsed under a gentle stream of water, and air-dried. To release stain from the cells 100 μl of solubilization solution was added (1% N-lauroyl sarcosine, Sodium salt, Sigma L5125, in PBS), and plates were shaken gently for about 30 minutes. Optical density at 620 nm was measured on a microplate reader. Percent inhibition of cell growth was calculated relative to vehicle treated control wells. Concentration of compound that inhibits 50% of cell growth (IC50) was interpolated using nonlinear regression (Levenberg-Marquardt) and the equation, y=Vmax*(1-(x/(K+x)))+Y2, where “K” was equal to the IC50. In Table 1, +=10−>30 uM; ++=1−10 uM: +++=<1 uM.

PLK1 kinase domain = target: T1, PLK1 kinase domain (Homo sapiens, UniProt P53350); experiment: Assay for Inhibition of PLK1 (SPA enzyme activity); assay type: biochemical; settings: 2 μM ATP, read-out: Ave pIC50 PLK Enzyme Inhibition (converted)
T1 construct: made in house; host or cells: baculovirus-infected T. ni insect cells
T1 sequence (P53350 21-346): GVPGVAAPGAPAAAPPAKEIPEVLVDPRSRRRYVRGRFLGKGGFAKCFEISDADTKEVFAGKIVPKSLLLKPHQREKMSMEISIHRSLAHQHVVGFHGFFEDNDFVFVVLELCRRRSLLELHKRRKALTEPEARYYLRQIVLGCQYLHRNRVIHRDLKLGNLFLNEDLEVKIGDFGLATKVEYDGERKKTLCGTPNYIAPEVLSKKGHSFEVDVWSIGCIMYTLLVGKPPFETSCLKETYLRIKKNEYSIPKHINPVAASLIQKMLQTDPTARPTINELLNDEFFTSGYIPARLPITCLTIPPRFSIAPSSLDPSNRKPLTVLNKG
Protocol: All procedures were performed at 4° C. Cells were lysed in so mM HEPES, 200 mM NaCl, so mM imidazole, 5% glycerol; pH 7.5. The homogenate was centrifuged at 14K rpm in a SLA-1500 rotor for 1 hr and the supernatant filtered through a 1.2 micron filter. The supernatant was loaded onto a Nickel chelating Sepharose (Amersham Pharmacia) column and washed with lysis buffer. Protein was eluted using 20%, 30% and 100% buffer B steps where buffer B is 50 mM HEPES, 200 mM NaCl, 300 mM imidazole, 5% glycerol; pH 7.5. Fractions containing PLK were determined by SDS-PAGE. Fractions containing PLK were diluted five-fold with so mM HEPES, 1 mM DTT, 5% glycerol; pH 7.5, then loaded on an SP Sepharose (Amersham Pharmacia) column. After washing the column with so mM HEPES, 1 mM DTT, 5% glycerol; pH 7.5, PLK was step eluted with so mM HEPES, 1 mM DTT, 500 mM NaCl; 5% glycerol; pH 7.5. PLK was concentrated using a 10 kDa molecular weight cutoff membrane and then loaded onto a Superdex 200 gel filtration (Amersham Pharmacia) column equilibrated in 25 mM HEPES, 1 mM DTT, 500 mM NaCl, 5% glycerol; pH 7.5. Fractions containing PLK were determined by SDS-PAGE. PLK was pooled, aliquoted and stored at −80° C. Samples were quality controlled using mass spectrometry, N-terminal sequencing and amino acid analysis.
B. Enzyme activity+/−inhibitors was determined as follows:
Compounds were added to the plate (1 μl in […]). […] Reaction Mix B is prepared as follows at 4° C.: • Reaction Mix B (Enzyme Mix) • 25 mM HEPES, pH 7.2 • 15 mM MgCl2 • 0.15 mg/ml BSA • 2 mM DTT • 2-10 nM PLK1 kinase domain
Reaction Mix A (20 μl) is added per well. Reaction Mix B (20 μl) is added per well. Incubate 1.5 hrs. at RT. The enzymatic reaction is stopped with 175 μl of SPA/EDTA bead mix (29 mM EDTA, 2.5 mg/ml Streptavidin-coated SPA in Standard Dulbecco's PBS (without Mg^2+ and Ca^2+), 60 μM ATP). Plates are sealed spun (after a 1 hr incubation at RT) at 1,000×g for 7 min or settled overnight, then plates counted in Packard TopCount for 30 seconds/well.

[2] = tested on: breast tumor (MCF7) cell line; experiment: Methylene Blue Growth Inhibition Assay, MCF7; assay type: cell-based; settings: Homo sapiens, 72 h; Cell Line MCF7, 3 days; read-out: MeB IC50
Protocol: as §1

[3] = tested on: Normal Human foreskin fibroblasts (HFF); experiment: Methylene Blue Growth Inhibition Assay, HFF; assay type: cell-based; settings: 72 h, Cell Line HFF, 3 days, read-out: MeB IC50
Protocol: as §1

[4] = tested on: lung (H460) tumor cell line; experiment: Methylene Blue Growth Inhibition Assay, H460; assay type: cell-based; settings: Homo sapiens, NCI-H460, 72 h; Cell Line H460, 3 days; read-out: MeB IC50
Protocol: as §1

[5] = tested on: prostate (PC3) tumor cell line; experiment: Methylene Blue Growth Inhibition Assay, PC3; assay type: cell-based; settings: Homo sapiens, 72 h; Cell Line PC3, 3 days; read-out: MeB IC50
Protocol: as §1

[6] = tested on: colon (RKO) tumor cell line; experiment: Methylene Blue Growth Inhibition Assay, RKO; assay type: cell-based; settings: Homo sapiens, 72 h, 3 days, read-out: MeB IC50
Protocol: as §1

IC50 [1] | IC50 (PLK1 kinase domain) | IC50 [2] | IC50 [4] | IC50 [5] | IC50 [6] | Structure (SMILES) | IC50 [3]
> 10 µM | 0.1 to 10 µM | > 10 µM | > 10 µM | > 10 µM | > 10 µM | CS(=O)(=O)N1CCC(COc2cc(-n3cnc4cc5c(cc43)OCCO5)sc2C(N)=O)CC1 [Example 124, 5-(6,7-Dihydro-1H-[1,4]dioxino[2,3-f]benzimidazol-1-yl)-3-{[1-(methylsulfonyl)-piperidin-4-yl]methoxy}thiophene-2-carboxamide] | > 10 µM
1 to 10 µM | 0.1 to 10 µM | > 10 µM | > 10 µM | > 10 µM | 1 to 10 µM | NC(=O)c1sc(-n2cnc3ccccc32)cc1NCc1ccccc1C(F)(F)F [Example 133, 5-(1H-Benzimidazol-1-yl)-3-{[2-(trifluoromethyl)benzyl]amino}-thiophene-2-carboxamide] | > 10 µM
1 to 10 µM | < 0.1 µM | 1 to 10 µM | 1 to 10 µM | > 10 µM | 1 to 10 µM | C#Cc1ccccc1COc1cc(-n2cnc3cc(OC)c(OC)cc32)sc1C(N)=O [Example 106, 5-(5,6-Dimethoxy-1H-benzimidazol-1-yl)-3-[(2-ethynylbenzyl)oxy]thiophene-2-carboxamide] | > 10 µM
1 to 10 µM | < 0.1 µM | 1 to 10 µM | 1 to 10 µM | > 10 µM | 1 to 10 µM | COc1cc2ncn(-c3cc(OCc4ccc(C(N)=O)cc4)c(C(N)=O)s3)c2cc1OC [Example 104, 3-{[4-(Aminocarbonyl)benzyl]oxy}-5-(5,6-dimethoxy-1H-benzimidazol-1-yl)thiophene-2-carboxamide] | > 10 µM
< 1 µM | < 0.1 µM | < 1 µM | < 1 µM | 1 to 10 µM | < 1 µM | COc1cc2ncn(-c3cc(OCc4ccccc4C(F)(F)F)c(C(N)=O)s3)c2cc1OCCN1CCN(C)CC1 [Example 136, 5-(5-(Methyloxy)-6-{[2-(4-methyl-1-piperazinyl)ethyl]oxy}-1H-benzimidazol-1-yl)-3-({[2-(trifluoromethyl)phenyl]methyl}oxy)-2-thiophenecarboxamide] | 1 to 10 µM
> 10 µM | 0.1 to 10 µM | > 10 µM | > 10 µM | > 10 µM | > 10 µM | COc1cc2ncn(-c3cc(OCc4ccccc4C(O)CO)c(C(N)=O)s3)c2cc1OC (stereo not drawn) [Example 109] | > 10 µM
1 to 10 µM | < 0.1 µM | 1 to 10 µM | < 1 µM | > 10 µM | < 1 µM | NC(=O)c1sc(-n2cnc3ccc(OCCN4CCOCC4)cc32)cc1OCc1ccccc1C(F)(F)F [Example 138, 5-[6-(2-Morpholin-4-ylethoxy)-1H-benzimidazol-1-yl]-3-{[2-(trifluoromethyl)benzyl]oxy}thiophene-2-carboxamide] | 1 to 10 µM
< 1 µM | < 0.1 µM | < 1 µM | < 1 µM | 1 to 10 µM | < 1 µM | COc1cc2ncn(-c3cc(OCc4ccccc4C(F)(F)F)c(C(N)=O)s3)c2cc1OC [Example 63, 5-(5,6-Dimethoxy-1H-benzimidazol-1-yl)-3-{[2-(trifluoromethyl)-benzyl]oxy}thiophene-2-carboxamide] | 1 to 10 µM
< 1 µM | < 0.1 µM | < 1 µM | < 1 µM | < 1 µM | < 1 µM | CC(Oc1cc(-n2cnc3cc(N)ccc32)sc1C(N)=O)c1ccccc1Cl (stereo not drawn) [Example 157, 5-(5-Amino-1H-benzimidazol-1-yl)-3-[1-(2-chlorophenyl)ethoxy]thiophene-2-carboxamide] | > 10 µM
< 1 µM | < 0.1 µM | < 1 µM | < 1 µM | > 10 µM | < 1 µM | COc1cc2ncn(-c3cc(OCc4ccccc4Br)c(C(N)=O)s3)c2cc1OC [Example 65, 3-[(2-Bromobenzyl)oxy]-5-(5,6-dimethoxy-1H-benzimidazol-1-yl)thiophene-2-carboxamide] | > 10 µM
> 10 µM | < 0.1 µM | > 10 µM | > 10 µM | > 10 µM | > 10 µM | NC(=O)c1sc(-n2cnc3cc(C(=O)NCCN4CCNC4=O)ccc32)cc1OCc1ccccc1C(F)(F)F [Example 156, 1-(5-(Aminocarbonyl)-4-{[2-(trifluoromethyl)benzyl]oxy}thien-2-yl)-N-[2-(2-oXoimidazolidin-1-yl)ethyl]-1H-benzimidazole-5-carboxamide] | > 10 µM
> 10 µM | < 0.1 µM | > 10 µM | > 10 µM | > 10 µM | > 10 µM | Cc1ccccc1COc1cc(-n2cnc3ccc(Cl)cc32)sc1C(=O)O [Example 35, 5-(6-Chloro-1H-benzimidazol-1-yl)-3-[(2-methylbenzyl)oxy]thiophene-2-carboxylic acid] | > 10 µM
1 to 10 µM | < 0.1 µM | 1 to 10 µM | 1 to 10 µM | > 10 µM | 1 to 10 µM | C=Cc1ccccc1COc1cc(-n2cnc3cc(OC)c(OC)cc32)sc1C(N)=O [Example 103, 5-(5,6-Dimethoxy-1H-benzimidazol-1-yl)-3-[(2-vinylbenzyl)oxy]thiophene-2-carboxamide] | > 10 µM
1 to 10 µM | < 0.1 µM | 1 to 10 µM | 1 to 10 µM | > 10 µM | 1 to 10 µM | COc1cc2ncn(-c3cc(OCc4cccc(N(C)C)c4)c(C(N)=O)s3)c2cc1OC [Example 90, 5-(5,6-Dimethoxy-1H-benzimidazol-1-yl)-3-{[3-(dimethylamino)benzyl]oxy}thiophene-2-carboxamide] | > 10 µM
1 to 10 µM | < 0.1 µM | 1 to 10 µM | 1 to 10 µM | > 10 µM | 1 to 10 µM | Cc1ccccc1COc1cc(-n2cnc3ccc(Cl)cc32)sc1C(N)=O [Example 61] | > 10 µM
